Measurements published in patent US10920265B2, “Compounds and methods for detection of enzymes that remove methyl succinyl groups from epsilon-amino lysine moieties” (Enzo Life Sciences, Inc., priority 2011, dated 2021).

Key:
SIRT2 = biological target: T1, SIRT2 (Homo sapiens, UniProt Q8IXJ6); experiment: Sirtuin activity with fluorogenic lysyl substrates; type: biochemical; details: 50 μM substrate, 500 μM NAD^+
T1 sequence (Q8IXJ6 1-389): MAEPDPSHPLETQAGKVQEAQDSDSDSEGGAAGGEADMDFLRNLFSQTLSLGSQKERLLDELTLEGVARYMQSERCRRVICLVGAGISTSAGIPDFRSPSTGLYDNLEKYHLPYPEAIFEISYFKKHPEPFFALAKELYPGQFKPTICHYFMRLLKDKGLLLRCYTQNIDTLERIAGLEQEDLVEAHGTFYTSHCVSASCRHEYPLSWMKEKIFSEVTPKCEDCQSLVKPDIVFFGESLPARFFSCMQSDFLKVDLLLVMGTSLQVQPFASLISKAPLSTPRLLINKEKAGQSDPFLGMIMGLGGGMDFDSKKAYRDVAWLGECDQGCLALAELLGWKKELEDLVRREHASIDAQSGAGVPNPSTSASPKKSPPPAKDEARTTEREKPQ
Method in brief: (§1)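 37 °C; recombinant human enzymes or HeLa extract; acetyl-, succinyl- or trifluoroacetyl-lysine AMC substrates (e.g. Ac-Lys(Succ.)-AMC) in SIRT1 fluorometric kit format; trypsin development, AMC fluorescence read-out.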

SIRT4 = biological target: T2, SIRT4 (Homo sapiens, UniProt Q9Y6E7); experiment: Sirtuin activity with fluorogenic lysyl substrates; type: biochemical; details: 50 μM substrate, 500 μM NAD^+
T2 construct: purchased BPS Bioscience 50015
T2 sequence (Q9Y6E7 29-314): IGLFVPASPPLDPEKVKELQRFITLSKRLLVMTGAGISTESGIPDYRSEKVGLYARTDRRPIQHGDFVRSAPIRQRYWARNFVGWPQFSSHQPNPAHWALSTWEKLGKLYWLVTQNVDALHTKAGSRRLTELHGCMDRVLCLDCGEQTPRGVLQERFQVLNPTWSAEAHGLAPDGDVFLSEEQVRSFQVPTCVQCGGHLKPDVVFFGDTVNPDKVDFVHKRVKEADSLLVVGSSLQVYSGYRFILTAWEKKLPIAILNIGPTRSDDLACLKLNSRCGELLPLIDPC
Method in brief: as §1

CC(=O)N[C@@H](CCCCNC(=O)CCC(=O)O)C(=O)Nc1ccc2c(C)cc(=O)oc2c1 [Compound 1, N—(N^α-acetyl-L-Lysine(N^ε-succinyl))-AMC]
Activity (pmol/min/μg) (SIRT2): Undetectable | Activity (pmol/min/μg) (SIRT4): Undetectable

CC(=O)NCCCCC(NC(C)=O)C(=O)Nc1ccc2c(C)cc(=O)oc2c1 (stereo not shown) [Ac-Lys(Ac.)-AMC, Ac-Lys(ε-acetyl)-AMC, reference compound]
Activity (SIRT2): 0.016 pmol/min/µg | Activity (pmol/min/μg) (SIRT4): Undetectable
